The values below come from US9969709B2, “Guanidinobenzoic acid ester compound” (Takeda Pharmaceutical Company Limited, priority 2013, dated 2018).

For assay [1], the target named is T1, human recombinant trypsin (rh-trypsin) (Homo sapiens, UniProt P07477).
T1 construct: purchased Wako Pure Chemical Industries, Ltd. 206-17171
Put plainly: Trypsin inhibitory activity, human recombinant trypsin, BZiPAR fluorescent substrate. It is filed as biochemical. To be noted: 30 min at room temperature, read-out: r-h Trypsin inhibitory activity (IC50). The protocol:
(§1) 1. Confirmation of Trypsin Inhibitory Activity in Humans and Mice In the experiment, human recombinant trypsin (rh-trypsin; manufactured by Wako Pure Chemical Industries, Ltd.), cat. #206-17171) and mouse trypsin (m-trypsin; purified from the mouse small intestine contents by the present inventors) were used. The method for purifying m-trypsin from the contents of the mouse small intestine is shown below. The compound was dissolved in dimethyl sulfoxide (DMSO), and diluted to an arbitrary concentration (A). A was 100-fold diluted with a buffer (0.1 M Tris (pH 8.0), 0.15 M NaCl, 10 mM CaCl2, 0.05% Brij35) (B). The rh-trypsin was diluted with a buffer to 0.088 μg/mL, and for the m-trypsin, the purified fraction liquid was 50-fold diluted with the buffer (C). […] A BZiPAR solution (Rhodamine Reference Substrate) which is substrate for the trypsin enzyme was diluted with the buffer to […] (D). 5 μL of B, 5 μL of C, and 10 μL of D were added to a 384-well plate, and incubated at room temperature for 30 minutes. Fluorescent signals were detected at a maximum excitement (Ex)/fluorescent wavelength (Em)=497 nm/520 nm using a Tecan Safire Fluorometer. […] Based on the obtained inhibitory rates, the trypsin inhibitory activities (IC50 values, nM) were calculated from the non-linear regression.

For assay [2], the system named is T2, mouse trypsin (m-trypsin).
T2 construct: mouse trypsin (m-trypsin)
Nature of the assay: Trypsin inhibitory activity, mouse trypsin purified from small intestine contents, BZiPAR fluorescent substrate. It is filed as biochemical. The note with it: 30 min at room temperature.
Text: 1. Confirmation of Trypsin Inhibitory Activity in Humans and Mice
In the experiment, human recombinant trypsin (rh-trypsin; manufactured by Wako Pure Chemical Industries, Ltd.), cat. #206-17171) and mouse trypsin (m-trypsin; purified from the mouse small intestine contents by the present inventors) were used. The method for purifying m-trypsin from the contents of the mouse small intestine is shown below.
The small intestine contents and the gastrointestinal tract obtained from 10 mice were homogenized in phosphate buffer saline (PBS) using Polytron, and subjected to centrifugation several times at 15,000×g for 10 minutes. The supernatant was mixed at 4° C. for 16 hours with a Benzamidine Sepharose 4 Fast Flow Resin (GE Healthcare: #17-5123-10). After washing the resin with PBS, m-trypsin was eluted with a glycine buffer (pH 3.0) to carry out purification. It was confirmed by Western blot analysis that the obtained purified fraction was recognized as an Anti-mouse Trypsin Antibody (Santa Cruz Biotechnology, Inc.: sc-67388). The method for measuring the trypsin inhibiting activity is shown below.
as §1, with “The” for “1. Confirmation of Trypsin Inhibitory Activity in Humans and Mice In the experiment, human recombinant trypsin (rh-trypsin; manufactured by Wako Pure Chemical Industries, Ltd.), cat. #206-17171) and mouse trypsin (m-trypsin; purified from the mouse small intestine contents by the present inventors) were used. The method for purifying m-trypsin from the contents of the mouse small intestine is shown below. The”

Another assay has as its system ICR mice. Put plainly: Test of increase in fecal protein concentration using mice. Format: in vivo, mouse. To be noted: 5 mg/kg oral, male ICR mice, feces collected 3 to 9 hours after feeding started, control group = 1; for response vs control in vivo at 5 mg/kg: Mus musculus, po, 9 h, read-out: Fecal protein, Folds (vs. control). The protocol:
2. Test of Increase in Fecal Protein Concentration Using Mice
For the experiment, 6-week old male ICR mice were used. The experiment was carried out in five mice per group. After fasting the mice for 15 hours, the control group was forcibly orally administered with a 0.5% methyl cellulose (MC) solution, and the test drug group was forcibly orally administered (5 mg/kg) with a solution or suspension obtained by dissolving or suspending the compound in the 0.5% MC solution. The fasting was stopped immediately thereafter, free feeding (CE-2) was started, and then the feces were collected from after 3 hours to after 9 hours, and weighed. All of the obtained feces were suspended in 6 mL of distilled water, and centrifuged at 1,940×g for 10 minutes. The protein concentration in the obtained supernatant was measured by a Bradford method, and the amount of the protein in 1 g of feces was calculated by dividing the protein concentration in the feces by the total weight of feces. Further, the efficacy was investigated from the ratio to the control group. For the compounds that were evaluated multiple times, the average values were calculated.
The results of the activities with an increase in Fecal Protein, assuming a value for the control group as 1, are shown in Table 2.

Where a name gives a salt, the structure may show the parent alone.

`N=C(N)Nc1ccc(C(=O)Oc2ccc3c(c2)CCC(C(=O)N(CCC(=O)O)Cc2csc(C(=O)O)c2)C3)cc1` (stereo not shown) [Example 45]: the IC50 (commonly the point on the concentration scale where inhibition reaches its midpoint) in assay [1] is 0.36 nM; in assay [2], 0.54 nM. In addition, in the assay with ICR mice, the response vs control in vivo at 5 mg/kg was 138%.

On to `N=C(N)Nc1ccc(C(=O)Oc2ccc3c(c2)CCC(C(=O)N(CC(=O)O)Cc2csc(C(=O)O)c2)C3)cc1` (stereo not shown) [Example 4, 4-{[({6-[(4-carbamimidamidobenzoyl)oxy]-1,2,3,4-tetrahydronaphthalen-2-yl}carbonyl)(carboxymethyl)amino]methyl}thiophene-2-carboxylic acid monohydrochloride], for which the IC50 in assay [1] was determined as 0.43 nM; in assay [2], 0.61 nM. Moreover, the response vs control in vivo at 5 mg/kg in the assay on ICR mice is 262%.

For `N=C(N)Nc1ccc(C(=O)Oc2ccc3c(C(=O)N(CCC(=O)O)Cc4csc(C(=O)O)c4)cccc3c2)cc1` [Example 43], the IC50 was 0.17 nM in assay [1] and 0.19 nM in assay [2]. In addition, in the assay on ICR mice, the response vs control in vivo at 5 mg/kg was found to be 198%.

As for `N=C(N)Nc1ccc(C(=O)Oc2ccc3c(c2)CCC(C(=O)N(CC(=O)O)[C@@H](Cc2ccccc2)C(=O)O)C3)cc1` (stereo partly shown) [Example 31], the IC50 in assay [1] came out at 0.23 nM; in assay [2] it was 0.22 nM. Besides, in the assay on ICR mice, the response vs control in vivo at 5 mg/kg was 151%.

As for `N=C(N)Nc1ccc(C(=O)Oc2ccc3cc(C(=O)N(CC(=O)O)[C@@H](Cc4ccccc4)C(=O)O)ccc3c2)cc1` [Example 39], the half-inhibitory concentration (IC50) in assay [1] came out at 0.18 nM; in assay [2], 0.13 nM. In addition, in the assay on ICR mice, the response vs control in vivo at 5 mg/kg was determined as 108%.

As to `N=C(N)Nc1ccc(C(=O)Oc2ccc3c(c2)OCC3CC(=O)N(CC(=O)O)Cc2cccc(C(=O)O)c2)cc1` (stereo not shown) [Example 10], the concentration for half-maximal inhibition (IC50) is 1.2 nM in assay [1] and 1.4 nM in assay [2].

Consider `N=C(N)Nc1ccc(C(=O)Oc2ccc3c(C(=O)N[C@@H](Cc4ccc(C(=O)O)cc4)C(=O)O)csc3c2)cc1` [Example 47], for which the values for the IC50 in assay [1] and in assay [2] were 0.26 nM and 0.29 nM, respectively. The response vs control in vivo at 5 mg/kg in the assay with ICR mice came to 191%.

On to `C[C@H](C(=O)O)N(Cc1csc(C(=O)O)c1)C(=O)CC1CCCc2cc(OC(=O)c3ccc(NC(=N)N)cc3)ccc21` (single isomer, unassigned) [Example 8, 4-({({(1R)-6-[(4-carbamimidamidobenzoyl)oxy]-1,2,3,4-tetrahydronaphthalen-1-yl}acetyl) [(1R)-1-carboxyethyl]amino}methyl)thiophene-2-carboxylic acid or an epimer at position 1 of the 1,2,3,4-tetrahydronaphthalene], for which the IC50 in assay [1] was determined as 0.43 nM; in assay [2], 0.57 nM. Also, in the assay with ICR mice, the “Fecal protein, Folds (vs. control)” value was 1.90.

For the compound `C[C@H](C(=O)O)N(Cc1csc(C(=O)O)c1)C(=O)CC1CCCc2cc(OC(=O)c3ccc(NC(=N)N)cc3)ccc21` (stereo partly shown) [Example 19], the 50% inhibitory concentration (IC50) was found to be 0.39 nM in assay [1] and 0.6 nM in assay [2]. The response vs control in vivo at 5 mg/kg in the assay with ICR mice amounted to 251%.

Take `N=C(N)Nc1ccc(C(=O)Oc2ccc3c(C(=O)N(CC(=O)O)Cc4cccc(C(=O)O)c4)csc3c2)cc1` [Example 60]: the 50% inhibitory concentration (IC50) worked out at 0.33 nM in assay [1] and 0.31 nM in assay [2]. The response vs control in vivo at 5 mg/kg with ICR mice turned out to be 226%.

For the compound `N=C(N)Nc1ccc(C(=O)Oc2ccc3cc(C(=O)N(CC(=O)O)Cc4ccc(CC(=O)O)cc4)ccc3c2)cc1` [Example 16], the half-inhibitory concentration (IC50) in assay [1] stood at 0.14 nM; in assay [2] it was 0.24 nM. Moreover, the response vs control in vivo at 5 mg/kg with ICR mice is 239%.

Turning to `N=C(N)Nc1ccc(C(=O)Oc2ccc3c(c2)CCCC3CC(=O)N[C@@H](Cc2ccc(C(=O)O)cc2)C(=O)O)cc1` (stereo partly shown) [Example 36], the 50% inhibitory concentration (IC50) is 0.26 nM in assay [1] and 0.28 nM in assay [2]. In addition, the response vs control in vivo at 5 mg/kg in the assay on ICR mice was 190%.

On to `N=C(N)Nc1ccc(C(=O)Oc2ccc3c(c2)CCCC3CC(=O)N(Cc2ccccc2)CC(CC(=O)O)CC(=O)O)cc1` (stereo not shown) [Example 44], for which the concentration for half-maximal inhibition (IC50) in assay [1] and in assay [2] was 0.2 nM in each case. Moreover, the response vs control in vivo at 5 mg/kg with ICR mice was found to be 172%.

Turning to `N=C(N)Nc1ccc(C(=O)Oc2ccc3c(c2)CCC(C(=O)N(CC(=O)O)Cc2ccc(CC(=O)O)cc2)C3)cc1` (stereo not shown) [Example 20], the values for the IC50 in assay [1] and in assay [2] were 0.47 nM and 0.77 nM, respectively. Also, in the assay on ICR mice, the response vs control in vivo at 5 mg/kg is 223%.

For `N=C(N)Nc1ccc(C(=O)Oc2ccc3c(c2)CCCC3CC(=O)N(CC(=O)O)Cc2cccc(C(=O)O)c2)cc1` (single isomer, unassigned) [Example 5, 3-{[({(1R)-6-[(4-carbamimidamidobenzoyl)oxy]-1,2,3,4-tetrahydronaphthalen-1-yl}acetyl)(carboxymethyl)amino]methyl}benzoic acid or an enantiomer thereof], the concentration for half-maximal inhibition (IC50) amounted to 0.19 nM in assay [1] and 0.27 nM in assay [2]. Moreover, in the assay on ICR mice, the response vs control in vivo at 5 mg/kg was determined as 188%.

As for `N=C(N)Nc1ccc(C(=O)Oc2ccc3cc(C(=O)N(CC(=O)O)Cc4csc(C(=O)O)c4)sc3c2)cc1` [Example 59], the concentration for half-maximal inhibition (IC50) is 0.71 nM in assay [1] and 0.87 nM in assay [2]. For the same compound, the response vs control in vivo at 5 mg/kg with ICR mice is 164%.

With `N=C(N)Nc1ccc(C(=O)Oc2ccc3cc(C(=O)N(CC(=O)O)Cc4csc(C(=O)O)c4)ccc3c2)cc1` [Example 1, 4-{[{6-[(4-carbamimidamidobenzoyl)oxy]-2-naphthoyl}(carboxymethyl)amino]methyl}thiophene-2-carboxylic acid monohydrochloride], the 50% inhibitory concentration (IC50) was 0.31 nM in assay [1] and 0.41 nM in assay [2]. In addition, in the assay on ICR mice, the response vs control in vivo at 5 mg/kg came to 200%.

In the case of `N=C(N)Nc1ccc(C(=O)Oc2ccc3cc(C(=O)N(CCC(=O)O)Cc4csc(C(=O)O)c4)ccc3c2)cc1` [Example 56], the results for the half-maximal inhibitory concentration (IC50) in assay [1] and in assay [2] were 0.35 nM and 0.59 nM, respectively. Besides, the response vs control in vivo at 5 mg/kg in the assay on ICR mice amounted to 145%.

In the case of `N=C(N)Nc1ccc(C(=O)Oc2ccc3c(c2)CCCC3CC(=O)N(CC(=O)O)Cc2csc(CC(=O)O)c2)cc1` (stereo not shown) [Example 38], the IC50 in assay [1] worked out at 0.26 nM; in assay [2], 0.23 nM. In the assay with ICR mice, the response vs control in vivo at 5 mg/kg came out at 191%.

Consider `N=C(N)Nc1ccc(C(=O)Oc2ccc3c(c2)CCCC3CC(=O)N(CC(=O)O)Cc2csc(C(=O)O)c2)cc1` (stereo not shown) [Example 27], for which the IC50 in assay [1] worked out at 0.32 nM; in assay [2] it was 0.35 nM. In the assay with ICR mice, the response vs control in vivo at 5 mg/kg turned out to be 198%.

In the case of `N=C(N)Nc1ccc(C(=O)Oc2ccc3c(C(=O)N(CC(=O)O)Cc4cccc(C(=O)O)c4)cccc3c2)cc1` [Example 15], the 50% inhibitory concentration (IC50) in assay [1] was 0.1 nM; in assay [2], 0.18 nM. Besides, in the assay with ICR mice, the response vs control in vivo at 5 mg/kg was determined as 261%.

As to `C[C@H](C(=O)O)N(Cc1csc(C(=O)O)c1)C(=O)CC1CCc2cc(OC(=O)c3ccc(NC(=N)N)cc3)ccc21` (stereo partly shown) [Example 48], the IC50 in assay [1] stood at 0.36 nM; in assay [2], 0.44 nM. For the same compound, in the assay on ICR mice, the response vs control in vivo at 5 mg/kg came to 179%.

As to `N=C(N)Nc1ccc(C(=O)Oc2ccc3c(CC(=O)N(CC(=O)O)Cc4cccc(C(=O)O)c4)coc3c2)cc1` [Example 12], the IC50 was 1.5 nM in assay [1] and 1.7 nM in assay [2].
